Source: patent publication US7259293B2, “Expression of eukaryotic peptides in plant plastids” (priority 1998, dated 2007)

Tests used:
[1] = test system: Nb2 cell line; test: Nb2 cell proliferation bioactivity assay; format: cell-based, rat; conditions: 48 hrs incubation, MTS absorbance
Experimental: Bioactivity of the pH adjusted and centrifuged extract was tested using cells from an Nb2 cell line. These cells proliferate in the presence of growth hormone and other […] type compounds. The assay involves putting various concentrations of growth hormone-containing extract into a 96 well plate. Then a constant amount of cells are added to each well. The plate is incubated for 48 hrs and then a reagent called MTS is added. Metabolizing cells take up the MTS and convert it to a blue colored substance. The more cells there are the more blue color in the well. The blue color is measured using a spectrophotometer. The number of cells should be proportional to the concentration of growth hormone in the media. At some high concentration one expects that the cells will become saturated with growth hormone and that the dose response will level off. At very low hGH concentrations essentially no enhanced growth is seen.
To test this hypothesis in vitro, a rat lymphoma cell line, Nb2, that proliferates in the presence of somatotropin (hGH) and other […] type compounds was employed. Proliferation of this cell line is proportional to the amount of somatotropin in the culture medium, until saturation is reached. The ion exchange column eluate from transplastomic Nt-4838 and Nt-38794 plants or identically treated wild-type plants was added to the Nb2 cell culture medium. As control, E. coli produced, refolded hGH was used.

[2] = in vivo; cited from earlier work
[3] = test system: Wild type tobacco (nontransformed control plants); test: Whole plant glyphosate spray tolerance, wild type; format: in vivo; conditions: concentrations as low as 16 oz/Acre
[4] = test system: homoplasmic tobacco line 38773-6; test: In vitro glyphosate tolerance, shoot regeneration from leaf explants, line 38773-6; format: cell-based; conditions: tobacco plants expressing EPSPS in plastids (pMON38773)
Experimental: A transplastomic tobacco line homoplasmic for the construct pMON38773 was tested in vitro to determine the highest level of glyphosate tolerance. Explant tissue was prepared from leaf pieces of nontransgenic wild type tobacco control, Havanna, plants and the homoplasmic tobacco line 38773-6 and cultured for regeneration of shoots on TSO medium (described above) supplemented with glyphosate levels of 50 μM, 75 μM, 100 μM, 150 μM and 200 μM. The number of explants producing shoots was determined at 3 weeks and 6 weeks after explant preparation and culturing on glyphosate containing medium.

[5] = test system: homoplasmic tobacco plants of the line 38773-6; test: Whole plant glyphosate spray tolerance, line 38773-6; format: in vivo
Experimental: Homoplasmic tobacco plants of the line 38773-6 are sprayed with glyphosate using a track sprayer at concentrations corresponding to 0 oz/acre, 16 oz/acre, 32 oz/acre and 64 oz/acre to test for whole plant tolerance. Plant height was measured before and after spraying with glyphosate. The vegetative injury data was collected two weeks after spraying, while the reproductive injury data was collected at plant maturity.
Tolerance is characterized by the continued growth and greening of tissues sprayed with glyphosate. However, as the concentration of glyphosate applied increased, there was a corresponding increase in the level of vegetative injury.

For “alanine-hST: hGH with alanine N-terminus, from Nt4838 extracts, methionine removed by aminopeptidase”, the “proliferation of the Nb2 cell line (bioactivity)” value (“proliferation” for short) [1] was “also bioactive”.
For “recombinant somatotropin: recombinant somatotropin produced in E. coli, N-terminal methionine or phenylalanine (Moore et al. 1988)”, the pharmacokinetics [2] is listed as “equivalent pharmacokinetics”.
In the case of “chloroplast derived hGH: human growth hormone expressed in tobacco plastids”, the “proliferation” value [1] is reported as “biologically active” and the “proliferation” value ([1]; listed as hGH expressed from a plant plastid) is reported as “sigmoidal shape when graphed as absorbance versus hGH concentration”.
In the case of `O=C(O)CNCP(=O)(O)O` [Glyphosate, N-phosphonomethylglycine], the “susceptibility to glyphosate spray” value [3] is reported as “highly susceptible”, the “glyphosate level tolerated (shoot regeneration)” value [4] is reported as “at least 200 μM” and the “glyphosate concentration tolerated, whole plant spray” value ([5]; homoplasmic tobacco lines, initial results, vegetative tissue injury) is reported as 16 oz/acre. For the same compound, the “glyphosate level tolerated, whole plant spray” value ([5]; subsequent experiments with additional transformed lines) was 64 oz/Acre and the “glyphosate level with a good level of tolerance, whole plant spray” value ([5]; transplastomic lines) was 32 oz/Acre.
